Here are results for twelve compounds from patent US7214668B2, “Phosphonic acid based prodrugs of PMEA and its analogues” (Metabasis Therapeutics, Inc., priority 2002, dated 2007).

Where two headings read alike, the source gives them in different places. Bounds are passed on as bounds.

The nature of data set [1]: PMEApp accumulation in liver organ following oral administration to normal fasted rats. Type of data set: in vivo, rat. To be noted: 30 mg/kg PMEA equivalents p.o. The method, then:
PMEA prodrugs were tested in vivo to identify prodrugs with suitable oral bioavailability and favorable intrahepatic activation rates.
Following oral administration of 30-mg/kg prodrug (PMEA equivalents) to normal, fasted rats, liver organ samples were freeze-clamped at 8 hr. […] The retention time of PMEApp was 18.6 minutes.

Data set [2] deals with freshly isolated rat hepatocytes. The settings on record: 250 μM prodrug. The method, then: PMEA prodrugs were tested.
Hepatocytes were prepared from fed Sprague-Dawley rats (250–300 g) according to the procedure of Berry and Friend (Berry, M. N. Friend, D. S., J. Cell Biol. 43:506–520 (1969)) as modified by Groen (Groen, A. K. et al., Eur. J. Biochem 122:87–93 (1982)). Hepatocytes (60 mg/ml wet weight, >85% trypan blue viability) were incubated in 2 ml of krebs-bicarbonate buffer containing 20 mM glucose, and 1 mg/ml BSA for 4 hours in the presence of 250 μM PMEA prodrugs (from 25 mM stock solutions of prodrugs in methanol). At appropriate time points throughout the incubation (0, 1, 2, 4 hours), 400-μl aliquots of the cell suspension were taken and centrifuged through a silicon/mineral oil layer into 10% perchloric acid to extract intracellular nucleotides. The acidic cell extracts were neutralized with 0.3 volumes of 3M KOH/3M […] before evaluating PMEApp levels by ion exchange HPLC (Hewlett Packard 1050) using a Whatman Partisphere SAX (5 μm, 4.6×125 mm) column. Samples were loaded onto the column in 0.3M-ammonium phosphate buffer pH 3.5 and eluted from the column with a gradient to 0.8 M ammonium phosphate pH 3.5.

In data set [3] the test system is liver microsomes isolated from rats induced with dexamethasone. Briefly: In vitro activation of PMEA prodrug analogues to PMEA by rat liver microsomes. The procedure:
PMEA prodrug analogues were tested for activation to PMEA in reactions catalyzed by the microsomal fraction of rat liver.
Prodrugs (25 and 250 μM) were tested for activation by liver microsomes isolated from rats induced with dexamethasone to enhance CYP3A4 activity (Human Biologics Inc., Phoenix Ariz.). Reactions were conducted in 0.1 M KH2PO4, pH 7.4, in the presence of 2 mM NADPH and liver microsomes (1 mg/mL). Reaction mixtures were incubated for 5 minutes in an Eppendorf Thermomixer 5436 (37° C., speed 6). Reactions were terminated by the addition of 1.5 volumes of methanol. The resulting extracts were clarified by centrifugation at 14,000 rpm in an Eppendorf microfuge (20 minutes). The supernatants (200 μL) were evaporated under vacuum and heat to dryness before resuspending in 80 μL of buffer A (see below) for PMEA analysis. Spiked standards of 9-[2-(phosophonomethoxy)ethyl]adenine, (PMEA, lot 980397, Metabasis Therapeutics) were prepared in the same reaction mixture and processed in an identical fashion. After resuspension, samples were analyzed by reverse phase HPLC (Altima C-18 column) with use of an ion-pairing buffer (Buffer A) consisting of 10 mM ammonium phosphate, 2.5 mM octyltriethylammonium phosphate, pH 5.5. Samples were loaded in Buffer A and eluted with a methanol gradient from 40% to 80% over 20 minutes. Detection was at 265 nm.
A general note: Liver microsomes are a subcellular fraction often used to study metabolism.

The test system of a further data set is human liver microsomes. In words: Cis versus trans prodrug activation in human liver microsomes. To be noted: 100 μM prodrug, 2 mg/mL human liver microsomes; for Activation Rate: 5 minutes, 37° C. It is filed as in vitro ADME. The text has this:
The activation rates of cis (Compound 56, lot #20010093) and trans (9-{2-[2,4-trans-(S)-(+)-4-(3-chlorophenyl)-2-oxo-1,3,2-dioxaphosphorinan-2-yl]methoxyethyl} adenine, (lot 20010195) PMEA prodrugs was compared in order to establish which prodrug diastereomer is activated the most efficiently in human liver microsomes.
Human liver microsomes (mixed pool) were purchased from In Vitro Technologies (Lot RQX). […] Reactions were quenched with 60% methanol.

For data set [4] the following is noted: 30 mg/kg PMEA equivalents, in water, normal male rats.
Procedure: Compound 56 was solubilized in water for intravenous and oral administration. […] Liver organ concentrations of PMEApp were determined as indicated in Example I.
Data set [5] in a line: Solubility and stability of the mesylate salt of Compound 54 in water. Type of data set: physicochemical. The procedure: Ten Compound 54 salt forms (L-tartartric, succinic, maleic, L-malic, D-malic, citric, hydrochloric, phosphoric, nitric, methane-sulfonic acids) were evaluated to identify the best salt form to selectively crystallize out the cis-diastereomer from cis:trans mixtures following the prodrug coupling procedure. Solubility and stability of the mesylate salt of Compound 54 were analyzed in water.

The test system of data set [6] is freshly isolated rat hepatocytes. Briefly: PMEApp accumulation in rat hepatocytes following incubation with Compound 56 and PMEA (25 μM). Type of data set: cell-based. To be noted: 0–4 h, rat hepatocytes 20 mg/ml. The procedure: Hepatocyte pellets were immediately sonicated in 300 μl of ice-cold acetonitrile followed by the addition of 200 μl of water. Hepatocyte extracts were centrifuged for 20 minutes in an Eppendorf centrifuge at 4° C. and supernatants from the extracts were transferred to a fresh tube. Hepatocyte extract supernatants were evaporated to dryness under vacuum and then resuspended in 200 μl of water. PMEApp concentrations were quantified by LC-MS/MS (negative-ion mode) based on authentic PMEApp standards spiked into hepatocyte extracts. Ten microliter samples were loaded onto a Phenomenex Luna […] C8 column (50×2 mm) in 20 mM N-N-dimethylhexylamine, 10 mM propionic acid and eluted with a gradient of methanol from 20–64% over 5.5 minutes. An API 2000 triple quadrupole mass spectrometer fitted with a pneumatically-assisted electrospray interface was used to quantify the negative ion (PO3^−) using a Multiple Reaction Monitoring (MRM) technique.

For data set [7] the following is noted: cited from earlier work.
For data set [8] the following is noted: oral administration, species not stated; cited from earlier work.
For data set [9] the following is noted: cited from earlier work. The source holds these as a separate data set.
For data set [10] the following is noted: humans; i.v. dose; cited from earlier work.
Data set [11] in a line: Tissue distribution of PMEA equivalents after oral tritiated Compound 4 and bis POM PMEA in rats. To be noted: p.o.
Procedure: Total tritium counts were analyzed in solubilized samples of liver organ, kidney, plasma, urine, red blood cells, small intestine, as well as small intestine contents and feces obtained at various time points over 24 hours. Liver organ specificity was assessed by comparison of the temporal profiles of total tritium in liver organ versus kidney, small intestine, plasma, and red blood cells. Metabolite profiles in perchloric acid extracts of liver organ, kidney, small intestine, feces and urine were analyzed by HPLC.
For data set [12] the following is noted: 30 mg/kg PMEA equivalents p.o., rats. The method, then: Intact prodrug and the metabolite 9-[2-(phosophonomethoxy)ethyl]adenine (PMEA) and the respective mono-acids were measured in the plasma at 0 (predose), 0.33, 1, 3, 5, 8, and 12 hrs post dose by HPLC using fluorescence detection. The pharmacokinetic parameters were calculated based on noncompartmental analysis of the concentration-time profile.

For data set [13] the following is noted: cited from earlier work. This is another data set of the same source.
Data set [14] in a line: Plasma and urine PMEA following oral Compound 4 and bis POM PMEA in rats. The settings on record: 30 mg/kg PMEA equivalents p.o. Type of data set: in vivo, rat. The procedure:
PMEA levels (0–12 h) were quantified in plasma by fluorescence HPLC following chloroacetaldehyde derivatization. PMEA levels in urine were quantified 48 hours after treatment.
Plasma drug levels: PMEA was determined in plasma by a modification of the procedure described in the literature (Shaw J P, Louie M S, Krishnamurthy V V, Arimilli M N, Jones R J, Bidgood A M, Lee W A, & Cundy K C, Drug Metabolism and Disposition, 25:362–366 (1997)). Plasma (100 μL) samples were extracted with 2 volumes of 0.1% TFA in acetonitrile. Following centrifugation to remove the precipitate, the supernatant was evaporated to dryness. The dried plasma was reconstituted with 200 μL of the derivatization cocktail consisting of 0.34% chloroacetaldehyde in 100 mM sodium acetate pH 4.5 and incubated at 95° C. for 40 min. The samples were evaporated to dryness and reconstituted with mobile phase for analysis by HPLC. The derivatized PMEA was analyzed by an HPLC system (Hewlett Packard 1090) consisting of a Beckman Ultrasphere ODS 4.6×150 mm (5 μm) column developed with a 20-min gradient of 0–30% acetonitrile in 20 mM potassium phosphate pH 6.2. Fluorescence was monitored at an excitation and emission wavelength of 240 and 420 nm, respectively. The column temperature was 40° C. and the flow rate was 1.5 mL/min. The derivatized PMEA was detected and quantified by comparison to an authentic standard prepared in plasma and eluted at approximately 6 minutes. The limit of quantitation of PMEA, was 0.25 μg/mL.
Urinary excretion studies: The percent excretion of PMEA in urine was assessed by a modification of a previously described procedure (Russell J W, Marrero D, Whiterock V J, & Klunk L J, J Chromatog, 572:321–326 (1991)). Aliquots (0.25–0.5 mL) of urine samples and spiked standards were incubated with an equal volume of 17% (v/v) of 50% chloroacetaldehyde in 100 mM sodium acetate pH 4.5 at 50° C. for 4 hrs. Following centrifugation, the supernatant was analyzed by the HPLC method described in the previous section.

The conditions of data set [15]: cited from earlier work. This is another data set of the same source.
The conditions of data set [16]: dog, after bis POM PMEA, Cundy et al. 1997; cited from earlier work.
[17] abbreviates: 25 μM prodrug, 1 mg/mL microsomes, 2 mM NADPH, 5 minutes, 37° C., PMEA formation.
Setting [18] is: 250 μM prodrug, 1 mg/mL microsomes, 2 mM NADPH, 5 minutes, 37° C., PMEA formation.

Regarding `Nc1ncnc2c1ncn2CCOCP1(=O)OCCC(c2ccccc2)O1` (mixture of isomers) [Compound 1], the “Rats, PMEApp levels in liver organ @ 8 hr., 30 mg/kg, p.o.” value (“Rats, PMEApp levels … p.o.” below) in [1] was found to be 0.6 nmol/g.
`Nc1ncnc2c1ncn2CCOCP1(=O)OCCC(c2ccncc2)O1` (mixture of isomers) [Compound 2]: the “Rat Hepatocytes, PMEApp formation, 250 μM, AUC 0–4 h” value in data set [2] amounted to 106.8 nmol·h/g.
With `Nc1ncnc2c1ncn2CCOCP1(=O)OCCC(c2cc(Cl)cc(Cl)c2)O1` (mixture of isomers) [Compound 3], in data set [3], the “Activation Rate, Dex. Rat Liver Microsomes, 25 μM” value (“Activation Rate … 25 μM” below) stood at 2.2 nmol/min/mg and the “Activation Rate, Dex. Rat Liver Microsomes, 250 μM” value (shortened to “Activation Rate … 250 μM”) was 1.9 nmol/min/mg.
For the compound `Nc1ncnc2c1ncn2CCOCP1(=O)OCCC(c2ccc(Br)c(F)c2)O1` (mixture of isomers) [Compound 5], in data set [1], the “Rats, PMEApp levels … p.o.” value is given as 2.6 nmol/g. Further, in [3] (setting [17]), the “Activation Rate … 25 μM” value was determined as 1.3 nmol/min/mg. Also, the “Activation Rate … 250 μM” value in [3] (setting [18]) was 1.5 nmol/min/mg.
As for `Nc1ncnc2c1ncn2CCOCP1(=O)OCCC(c2cccc(Br)c2)O1` (mixture of isomers) [Compound 7], the “Rats, PMEApp levels … p.o.” value in data set [1] stood at 2.2 nmol/g.
In the case of `Nc1ncnc2c1ncn2CCOCP1(=O)OCCC(c2cc(F)cc(F)c2)O1` (mixture of isomers) [Compound 10], the “Rats, PMEApp levels … p.o.” value in data set [1] is given as 2.2 nmol/g.
For the compound `Cc1ccc(C2CCOP(=O)(COCCn3cnc4c(N)ncnc43)O2)cn1` (mixture of isomers) [Compound 18], the “Activation Rate … 25 μM” value in [3] (setting [17]) is below 0.5 nmol/min/mg. For the same compound, the “Activation Rate … 250 μM” value in [3] (setting [18]) was determined as 0.6 nmol/min/mg.
Regarding `CS(=O)(=O)O.Nc1ncnc2c1ncn2CCOCP1(=O)OCC[C@@H](c2cccc(Cl)c2)O1` (stereo in doubt) [Compound 56, 9-{2-[2,4-cis-(S)-(+)-4-(3′-Chlorophenyl)-2-oxo-1,3,2-dioxaphosphorinan-2-yl]metboxyethyl}adenine Methanesulfonate], the “Activation Rate” value in the data set on human liver microsomes came to 0.45 ± 0.01 nmol/mg/min. The “OBAV (ratio of AUC of liver organ PMEApp oral vs i.v.)” value in data set [4] is 42%. In addition, the “Decomposition of dosing solutions” value in data set [5] (30 and 300 mg/ml in water, 5 days, room temperature) is listed as below 10%. Moreover, in data set [5] (water), the Solubility in water was above 300 mg/mL.
For `Nc1ncnc2c1ncn2CCOCP1(=O)OCC[C@@H](c2cccc(Cl)c2)O1` (stereo in doubt) [trans-, 9-{2-[2,4-trans-(S)-(+)-4-(3-chlorophenyl)-2-oxo-1,3,2-dioxaphosphorinan-2-yl]methoxyethyl} adenine], in the data set on human liver microsomes, the Activation (below measureable detection limit, text) is below 0.05 nmol/min/mg and the “Activation Rate” value is on record as “≦0.05 nmol/mg/min”.
Turning to `Nc1ncnc2c1ncn2CCOCP1(=O)OCCC(c2ccccc2Br)O1` (centres unmarked) [Compound 6], in [1], the “Rats, PMEApp levels … p.o.” value stood at 7.1 nmol/g.
Consider `Nc1ncnc2c1ncn2CCOCP(=O)(O)O` [PMEA, 9-(2-phosphonylmethoxyethyl)adenine], for which the AUC0-4h PMEApp levels in hepatocytes in data set [6] is 84 nmol·h/g. Moreover, in data set [7], the “Oral bioavailability in humans” value is below 12%. Further, in data set [8], the Oral bioavailability is below 10%. Besides, the “Oral bioavailability in monkeys” value in data set [9] is given as below 1%. Also, the “Dose excreted renally / renally cleared” value in [10] is recorded as 98%.
As to `CC(C)(C)C(=O)OCOP(=O)(COCCn1cnc2c(N)ncnc21)OCOC(=O)C(C)(C)C` [bis POM PMEA], in [11], the “Dose excreted in feces in the form of PMEA” value was determined as 43%. Moreover, the “Intact prodrug in plasma” value in data set [12] is on record as “not detected”. Moreover, the “Half-life in human serum” value in data set [13] was below 5 min. Further, the “AUC0-12h of PMEA in plasma” value in [14] (fasted rats) came out at 21.3 µM·h. In data set [14] (rats, urine 48 hours after treatment), the “Urinary levels of PMEA” value is reported as 20.6 % dose. Also, the “Oral bioavailability in humans” value in data set [7] is recorded as 41%. In addition, the “Oral bioavailability in monkeys” value in data set [9] is listed as 25%. Moreover, the “Oral bioavailability in rats” value in data set [15] is given as 38%. Further, the “PMEA AUC (dose-normalized plasma), literature” value in [16] is listed as 10.9.
